Source: PubChem BioAssay (NCI)
Where “and” joins values, the source holds several entries; their conditions need not be identical. Identical values can stand only once.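 All cell lines were grown in 96-well plates and treated with compound for 48 hours. Abbreviation: GI50, concentration required for 50% inhibition of growth. At the TGI there is no net growth.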

Columns and labels:
Test in all cases: NCI-60 cell line screen, 48 h
HOP-92 NSCLC = tested on: HOP-92 NSCLC
HS 578T breast = tested on: HS 578T breast
MCF7 breast = tested on: MCF7 breast
NCI-H522 lung = tested on: NCI-H522 lung
OVCAR-3 ovarian = tested on: OVCAR-3 ovarian
SF-268 CNS = tested on: SF-268 CNS
TK-10 renal = tested on: TK-10 renal
NCI-H460 lung = tested on: NCI-H460 lung
SR leukemia = tested on: SR leukemia
BT-549 breast = tested on: BT-549 breast

CCNCC(=O)Nc1ccc2c(c1)C(=O)c1ccc(NC(=O)CNCC)cc1C2=O
TGI (HOP-92 NSCLC): 12.5 µM | TGI (HS 578T breast): 22.1 µM | TGI (MCF7 breast): 5.6 µM | TGI (NCI-H522 lung): 4.61 µM | TGI (OVCAR-3 ovarian): 8.74 µM | TGI (SF-268 CNS): 16.6 µM | TGI (TK-10 renal): 18.7 µM

CCCCCCCCCCCCCCCCc1c(C(=O)OC)nc(NC#N)[nH]c1=O
TGI (HOP-92 NSCLC): > 25 µM | TGI (NCI-H460 lung): > 25 µM | TGI (NCI-H522 lung): > 25 µM | TGI (OVCAR-3 ovarian): > 25 µM | TGI (SF-268 CNS): > 25 µM | TGI (TK-10 renal): > 25 µM

C=C(C)CC(C(=O)O)c1ccc(C)cc1 (stereo not drawn)
TGI (HOP-92 NSCLC): > 100 µM | TGI (NCI-H460 lung): > 100 µM | TGI (OVCAR-3 ovarian): > 100 µM | TGI (SF-268 CNS): > 100 µM | TGI (SR leukemia): > 100 µM | TGI (TK-10 renal): > 100 µM

O=C1CCCc2ccc([N+](=O)[O-])c(O)c21
TGI (HOP-92 NSCLC): > 100 µM | TGI (NCI-H460 lung): > 100 µM | TGI (NCI-H522 lung): > 100 µM | TGI (OVCAR-3 ovarian): > 100 µM | TGI (SF-268 CNS): > 100 µM | TGI (SR leukemia): > 100 µM | TGI (TK-10 renal): > 100 µM

Cn1cnc([N+](=O)[O-])c1Sc1n[nH]c(-c2ccc(Cl)cc2)n1
TGI (HOP-92 NSCLC): 37.6 µM | TGI (NCI-H460 lung): 53.6 µM | TGI (NCI-H522 lung): 24.9 µM | TGI (OVCAR-3 ovarian): 40.4 µM | TGI (SF-268 CNS): 50.7 µM | TGI (SR leukemia): 42 µM | TGI (TK-10 renal): 43.8 µM

C=CCCn1nc(-c2ccccc2)oc1=O
TGI (HOP-92 NSCLC): > 100 µM | TGI (NCI-H460 lung): > 100 µM | TGI (NCI-H522 lung): > 100 µM | TGI (OVCAR-3 ovarian): > 100 µM | TGI (SF-268 CNS): > 100 µM | TGI (SR leukemia): > 100 µM | TGI (TK-10 renal): > 100 µM

c1cc[c]([Ge]([O]c2cccc3cccnc23)([c]2ccccc2)[c]2ccccc2)cc1
GI50 (HOP-92 NSCLC): 12.4 µM | TGI (HOP-92 NSCLC): 25.5 µM | GI50 (NCI-H460 lung): 3.37 µM | TGI (NCI-H460 lung): 12.2 µM | GI50 (NCI-H522 lung): 1.9 µM | TGI (NCI-H522 lung): 3.74 µM | GI50 (OVCAR-3 ovarian): 2.55 µM | TGI (OVCAR-3 ovarian): 6.82 µM | GI50 (SF-268 CNS): 3.55 µM | TGI (SF-268 CNS): 15 µM | GI50 (TK-10 renal): 7.36 µM | TGI (TK-10 renal): 20.3 µM

CC[C@]12CN3CCc4c([nH]c5ccccc45)[C@@](C(=O)OC)(c4cc5c(cc4OC)N(C)[C@H]4[C@@](O)(C(=O)OC)[C@H](OC(C)=O)[C@]6(CC)C=CCN7CC[C@]54[C@@H]76)CC(C3)[C@H]1O2 (stereo partly drawn)
GI50 (BT-549 breast): 0.343 µM | GI50 (HOP-92 NSCLC): 1.29 µM | TGI (HOP-92 NSCLC): > 100 µM | TGI (HS 578T breast): 72.3 µM | GI50 (MCF7 breast): 0.0181 µM | TGI (MCF7 breast): > 33.9 µM | GI50 (NCI-H460 lung): 0.167 µM | TGI (NCI-H460 lung): 10.9 µM and > 27.4 µM | GI50 (OVCAR-3 ovarian): 0.0445 µM | GI50 (SF-268 CNS): 0.226 µM | TGI (SF-268 CNS): > 68.1 µM | GI50 (TK-10 renal): 0.562 µM | TGI (TK-10 renal): > 100 µM

C[C@]12Cc3conc3C(O)=C1CC[C@@H]1C2CC[C@@]2(C)C1CC[C@@H]2O (stereo partly drawn)
TGI (HOP-92 NSCLC): 63.6 µM | TGI (NCI-H460 lung): 40.7 µM | TGI (NCI-H522 lung): 13.5 µM | TGI (OVCAR-3 ovarian): 52.5 µM | TGI (SF-268 CNS): 73.1 µM | TGI (TK-10 renal): > 100 µM

Cc1cc(-c2nc3sc(C)cn3c2/C=N/N=C(N)N)c(C)s1
GI50 (HOP-92 NSCLC): 3.03 µM | TGI (HOP-92 NSCLC): 8.21 µM | GI50 (NCI-H460 lung): 6.18 µM | TGI (NCI-H460 lung): 21.5 µM | GI50 (NCI-H522 lung): 25.7 µM | TGI (NCI-H522 lung): > 100 µM | GI50 (OVCAR-3 ovarian): 2.04 µM | TGI (OVCAR-3 ovarian): 9.56 µM | GI50 (SF-268 CNS): 13.6 µM | TGI (SF-268 CNS): 28.9 µM | GI50 (SR leukemia): > 100 µM | TGI (SR leukemia): > 100 µM | GI50 (TK-10 renal): 6.12 µM | TGI (TK-10 renal): 18.6 µM

COc1ccc(/C=C/c2onc3c(=O)n(C)nc(-c4ccccc4)c23)cc1
TGI (HOP-92 NSCLC): 80.5 µM | TGI (NCI-H460 lung): > 100 µM | TGI (NCI-H522 lung): > 100 µM | TGI (SF-268 CNS): > 100 µM | TGI (TK-10 renal): > 100 µM

CCN1/C(=C/C(C)=C/c2sc3ccc4ccccc4c3[n+]2CC)Sc2ccc3ccccc3c21
GI50 (HOP-92 NSCLC): 0.163 µM | TGI (HOP-92 NSCLC): 0.612 µM | GI50 (MCF7 breast): 0.149 µM | TGI (MCF7 breast): 0.42 µM | GI50 (NCI-H460 lung): 0.121 µM | TGI (NCI-H460 lung): 0.329 µM | GI50 (NCI-H522 lung): 0.121 µM | TGI (NCI-H522 lung): 0.528 µM | GI50 (OVCAR-3 ovarian): 0.148 µM | TGI (OVCAR-3 ovarian): 0.317 µM | GI50 (SF-268 CNS): 0.198 µM | TGI (SF-268 CNS): 0.678 µM | GI50 (TK-10 renal): 0.217 µM | TGI (TK-10 renal): 0.997 µM

COc1cccc2c1C(=O)c1c(O)c3c(c(O)c1C2=O)C[C@](O)(C(=O)CO)C[C@H]3O[C@@H]1C[C@@H](NC(=O)CCCN(C)C2(c3ccc(F)cc3)CC3CCC2C3)[C@H](O)[C@@H](C)O1 (stereo partly drawn)
GI50 (BT-549 breast): 5.07 µM | TGI (BT-549 breast): 13.7 µM | GI50 (HOP-92 NSCLC): 3.62 µM | TGI (HOP-92 NSCLC): 11.1 µM | GI50 (HS 578T breast): 6.78 µM | TGI (HS 578T breast): 20.9 µM | GI50 (NCI-H460 lung): 0.545 µM | TGI (NCI-H460 lung): 1.22 µM | GI50 (NCI-H522 lung): 0.827 µM | TGI (NCI-H522 lung): 1.61 µM | GI50 (OVCAR-3 ovarian): 0.852 µM | TGI (OVCAR-3 ovarian): 1.71 µM | GI50 (SR leukemia): 0.311 µM | TGI (SR leukemia): 1.52 µM | GI50 (TK-10 renal): 0.78 µM | TGI (TK-10 renal): 1.64 µM

COc1cc2c3c(n(CCCN=[N+]=[N-])c(=O)c2cc1OC)-c1ccccc1C3=O
GI50 (BT-549 breast): 24.4 µM | TGI (BT-549 breast): > 100 µM | GI50 (HOP-92 NSCLC): 7 µM | TGI (HOP-92 NSCLC): 68.9 µM | GI50 (MCF7 breast): 5.35 µM | TGI (MCF7 breast): > 100 µM | GI50 (NCI-H460 lung): 5.2 µM | TGI (NCI-H460 lung): > 100 µM | GI50 (NCI-H522 lung): 44.8 µM | TGI (NCI-H522 lung): > 100 µM | GI50 (OVCAR-3 ovarian): 4.58 µM | TGI (OVCAR-3 ovarian): 24.5 µM | GI50 (SF-268 CNS): > 100 µM | TGI (SF-268 CNS): > 100 µM | GI50 (TK-10 renal): 13.8 µM | TGI (TK-10 renal): 75.5 µM

NC1=NN(c2ccccc2)C(=O)C1C(=O)C(=O)Nc1ccccc1 (stereo not drawn)
TGI (HOP-92 NSCLC): > 100 µM | TGI (NCI-H460 lung): > 100 µM | TGI (NCI-H522 lung): > 100 µM | TGI (OVCAR-3 ovarian): > 100 µM | TGI (SF-268 CNS): > 100 µM | TGI (TK-10 renal): > 100 µM

CC1OC(n2cc(F)c(=O)[nH]c2=O)CCC1=O (stereo not drawn)
TGI (HOP-92 NSCLC): > 100 µM | TGI (NCI-H460 lung): > 100 µM | TGI (NCI-H522 lung): > 100 µM | TGI (SF-268 CNS): > 100 µM | TGI (SR leukemia): > 100 µM | TGI (TK-10 renal): > 100 µM
